Converted amounts (≈) assume the structure as drawn. Where two headings read alike, the source gives them in different places.
What was measured:
[1] = test system: P. aeruginosa CDC-0090; assay: microbe, parasite or virus in culture; format: cell-based; conditions: Pseudomonas aeruginosa, CDC0090, read-out: Minimum inhibitory concentration, P. aeruginosa CDC-0090
[2] = test system: P. aeruginosa ATCC 27853; assay: microbe, parasite or virus in culture; format: cell-based; conditions: Pseudomonas aeruginosa, ATCC27853, read-out: Minimum inhibitory concentration, P. aeruginosa ATCC 27853
[3] = molecular target: A. baumannii PBP2 (Acinetobacter baumannii, UniProt D0C8Z9); assay: Bocillin-FL competition binding via gel filtration, A. baumannii PBP2
In short: (§1)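 Competitive equilibrium binding; reporter Bocillin-FL. PBP + inhibitor (titration) pre-incubated → Bocillin-FL, 15 min → gel filtration → fluorescence. EC50 from Hill fit of fraction bound vs [inhibitor].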

[4] = test system: P. aeruginosa ATCC 35151; assay: microbe, parasite or virus in culture; format: cell-based; conditions: Pseudomonas aeruginosa, ATCC35151, read-out: Minimum inhibitory concentration, P. aeruginosa ATCC 35151
[5] = test system: P. aeruginosa CDC-0110; assay: microbe, parasite or virus in culture; format: cell-based; conditions: Pseudomonas aeruginosa, CDC0110, read-out: Minimum inhibitory concentration, P. aeruginosa CDC-0110
[6] = test system: B. thailandensis ATCC 700388; assay: microbe, parasite or virus in culture; format: cell-based; conditions: Burkholderia thailandensis, ATCC700388, read-out: Minimum inhibitory concentration (MIC), B. thailandensis ATCC 700388
[7] = test system: B. pseudomallei Bp82; assay: microbe, parasite or virus in culture; format: cell-based; conditions: Burkholderia pseudomallei, BP82, read-out: Minimum inhibitory concentration, B. pseudomallei Bp82
[8] = test system: P. aeruginosa CDC-0054; assay: microbe, parasite or virus in culture; format: cell-based; conditions: Pseudomonas aeruginosa, CDC0054, read-out: Minimum inhibitory concentration, P. aeruginosa CDC-0054
[9] = test system: P. aeruginosa (ΔmexAB-oprM); assay: Broth microdilution MIC in iron-depleted CAMHB (IDM); format: cell-based; conditions: Pseudomonas aeruginosa, read-out: Minimum inhibitory concentration, P. aeruginosa ΔmexAB-oprM
[10] = test system: P. aeruginosa CDC-0095; assay: microbe, parasite or virus in culture; format: cell-based; conditions: Pseudomonas aeruginosa, CDC0095, read-out: Minimum inhibitory concentration, P. aeruginosa CDC-0095
[11] = molecular target: T1, A. baumannii PBP1a (Acinetobacter baumannii, UniProt A0ABX6CK30); assay: Bocillin-FL competition binding via gel filtration, A. baumannii PBP1a; conditions: competition binding assay using Bocillin-FL via gel filtration; read-out: A. baumannii PBP1a Potency
T1 sequence (A0ABX6CK30 1-851): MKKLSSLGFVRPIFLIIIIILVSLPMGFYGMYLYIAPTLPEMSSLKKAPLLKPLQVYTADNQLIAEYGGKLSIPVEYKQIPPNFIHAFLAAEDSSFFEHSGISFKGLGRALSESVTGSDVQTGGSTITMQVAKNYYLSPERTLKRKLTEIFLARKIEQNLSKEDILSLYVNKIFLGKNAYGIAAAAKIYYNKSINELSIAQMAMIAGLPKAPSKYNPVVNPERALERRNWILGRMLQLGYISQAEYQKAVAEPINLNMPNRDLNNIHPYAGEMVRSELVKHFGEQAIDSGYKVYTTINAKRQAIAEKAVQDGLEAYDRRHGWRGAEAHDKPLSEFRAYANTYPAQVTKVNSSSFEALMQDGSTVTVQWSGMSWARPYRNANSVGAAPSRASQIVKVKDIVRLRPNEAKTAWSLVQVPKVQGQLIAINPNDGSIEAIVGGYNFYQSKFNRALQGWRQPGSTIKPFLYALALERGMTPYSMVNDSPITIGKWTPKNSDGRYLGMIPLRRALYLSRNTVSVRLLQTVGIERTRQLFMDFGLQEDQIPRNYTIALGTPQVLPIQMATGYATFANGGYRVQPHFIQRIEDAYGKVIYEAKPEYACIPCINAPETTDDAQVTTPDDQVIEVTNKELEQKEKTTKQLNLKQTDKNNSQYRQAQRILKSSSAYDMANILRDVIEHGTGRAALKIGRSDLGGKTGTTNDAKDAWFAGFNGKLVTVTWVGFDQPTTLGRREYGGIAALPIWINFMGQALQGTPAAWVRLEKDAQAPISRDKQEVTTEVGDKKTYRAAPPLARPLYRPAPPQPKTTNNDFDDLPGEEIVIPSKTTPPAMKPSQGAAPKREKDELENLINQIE
In short: as §1

[12] = test system: B. humptydooensis ATCC BAA-2767; assay: microbe, parasite or virus in culture; format: cell-based; conditions: Burkholderia humptydooensis, ATCCBAA2767, read-out: Minimum inhibitory concentration (MIC), B. humptydooensis ATCC BAA-2767

Sequence of A. baumannii PBP2 (D0C8Z9 whole entry): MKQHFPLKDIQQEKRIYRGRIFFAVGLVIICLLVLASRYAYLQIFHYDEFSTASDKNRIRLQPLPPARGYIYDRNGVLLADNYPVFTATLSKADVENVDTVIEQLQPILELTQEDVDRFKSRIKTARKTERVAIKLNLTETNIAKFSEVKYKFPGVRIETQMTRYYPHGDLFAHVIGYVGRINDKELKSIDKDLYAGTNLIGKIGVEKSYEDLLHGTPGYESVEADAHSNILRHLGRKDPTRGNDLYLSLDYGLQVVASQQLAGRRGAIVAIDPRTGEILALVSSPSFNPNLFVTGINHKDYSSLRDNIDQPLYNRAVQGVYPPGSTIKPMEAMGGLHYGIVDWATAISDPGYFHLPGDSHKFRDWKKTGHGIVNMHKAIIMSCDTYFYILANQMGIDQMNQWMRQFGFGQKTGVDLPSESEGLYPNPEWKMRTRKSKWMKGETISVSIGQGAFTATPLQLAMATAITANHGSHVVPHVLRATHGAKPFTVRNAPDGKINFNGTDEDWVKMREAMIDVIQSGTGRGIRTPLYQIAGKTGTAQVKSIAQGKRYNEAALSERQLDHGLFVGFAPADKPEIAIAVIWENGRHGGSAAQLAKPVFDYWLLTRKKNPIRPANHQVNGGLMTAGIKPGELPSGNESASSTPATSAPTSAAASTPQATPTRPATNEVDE

| Structure (SMILES) | MIC [1] [µg/mL] | MIC [2] [µg/mL] | EC50 [3] [µM] | MIC [4] [µg/mL] | MIC [5] [µg/mL] | MIC [6] [µg/mL] | MIC [7] [µg/mL] | MIC [8] [µg/mL] | MIC [9] [µg/mL] | MIC [10] [µg/mL] | EC50 [11] [µM] | MIC [12] [µg/mL] | MIC ([9]; iron-depleted CAMHB (IDM), […]) [µg/mL] |
| --- | --- | --- | --- | --- | --- | --- | --- | --- | --- | --- | --- | --- | --- |
| O=C(O)c1c(F)ccc2c1OB(O)[C@@H](NC(=O)[C@H](NC(=O)N1CCN(C3CCN(Cc4cncc(O)c4)CC3)C1=O)c1cc(F)c(O)c(O)c1Cl)C2 (single isomer, unassigned) [Example 614] | < 1 | < 1 | 10 to 50 | < 1 | < 1 | < 1 | < 1 | 2 to 4 (≈ 2.68 to 5.37 µM) | < 1 | 2 to 4 (≈ 2.68 to 5.37 µM) | 10 to 50 | < 1 | – |
| NCc1cc(O)cc(CN2CCC(N3CCN(C(=O)N[C@@H](C(=O)N[C@H]4Cc5ccc(F)c(C(=O)O)c5OB4O)c4cc(F)c(O)c(O)c4Cl)C3=O)CC2)c1 (single isomer, unassigned) [Example 617] | < 1 | < 1 | 50 to 250 | < 1 | < 1 | < 1 | < 1 | < 1 | < 1 | < 1 | 10 to 50 | < 1 | – |
| Nc1ccc(CN2CCC(N3CCN(C(=O)N[C@@H](C(=O)N[C@H]4Cc5ccc(F)c(C(=O)O)c5OB4O)c4cc(F)c(O)c(O)c4Cl)C3=O)CC2)cn1 (single isomer, unassigned) [Example 618] | < 1 | < 1 | 10 to 50 | < 1 | < 1 | < 1 | < 1 | < 1 | < 1 | 2 to 4 (≈ 2.69 to 5.38 µM) | 10 to 50 | < 1 | – |
| O=C(O)c1c(F)ccc2c1OB(O)[C@@H](NC(=O)[C@@H](NC(=O)N1CCN(C3CCN(S(=O)(=O)c4ccc5[nH]nnc5c4)CC3)C1=O)c1cc(F)c(O)c(O)c1Cl)C2 (single isomer, unassigned) [Example 620] | 2 to 4 (≈ 2.44 to 4.88 µM) | 2 to 4 (≈ 2.44 to 4.88 µM) | < 10 | < 1 | > 128 | > 128 | – | 2 to 4 (≈ 2.44 to 4.88 µM) | < 1 | > 128 | < 10 | > 128 | – |
| O=C(O)c1c(F)ccc2c1OB(O)[C@@H](NC(=O)[C@H](NC(=O)N1CCN(C3CCN(S(=O)(=O)c4ccc5[nH]nnc5c4)CC3)C1=O)c1cc(F)c(O)c(O)c1Cl)C2 (single isomer, unassigned) [Example 621] | < 1 | < 1 | < 10 | < 1 | < 1 | 2 to 4 (≈ 2.44 to 4.88 µM) | – | < 1 | < 1 | < 1 | < 10 | < 1 | – |
| O=C(O)c1c(F)ccc2c1OB(O)[C@@H](NC(=O)[C@H](NC(=O)N1CCN(C3CCN(Cc4ccnnc4)CC3)C1=O)c1cc(F)c(O)c(O)c1Cl)C2 [Example 601, (R)-3-((R)-2-(2-chloro-5-fluoro-3,4-dihydroxyphenyl)-2-(2-oxo-3-(1-(pyridazin-4-ylmethyl)piperidin-4-yl)imidazolidine-1-carboxamido)acetamido)-7-fluoro-2-hydroxy-3,4-dihydro-2H-benzo[e][1,2]oxaborinine-8-carboxylic acid] | 2 to 4 (≈ 2.74 to 5.48 µM) | < 1 | 10 to 50 | < 1 | < 1 | < 1 | – | < 1 | < 1 | 2 to 4 (≈ 2.74 to 5.48 µM) | < 10 | < 1 | – |
| O=C(O)c1c(F)ccc2c1OB(O)[C@@H](NC(=O)[C@H](NC(=O)N1CCN(C3CCN(Cc4ccncn4)CC3)C1=O)c1cc(F)c(O)c(O)c1Cl)C2 [Example 602, (R)-3-((R)-2-(2-chloro-5-fluoro-3,4-dihydroxyphenyl)-2-(2-oxo-3-(1-(pyrimidin-4-ylmethyl)piperidin-4-yl)imidazolidine-1-carboxamido)acetamido)-7-fluoro-2-hydroxy-3,4-dihydro-2H-benzo[e][1,2]oxaborinine-8-carboxylic acid] | < 1 | < 1 | 10 to 50 | < 1 | < 1 | < 1 | < 1 | < 1 | < 1 | 2 to 4 (≈ 2.74 to 5.48 µM) | < 10 | < 1 | – |
| NCc1cccc(C(=O)N2CCC(N3CCN(C(=O)N[C@@H](C(=O)N[C@H]4Cc5ccc(F)c(C(=O)O)c5OB4O)c4cc(F)c(O)c(O)c4Cl)C3=O)CC2)c1 [Example 603, (R)-3-((R)-2-(3-(1-(3-(aminomethyl)benzoyl)piperidin-4-yl)-2-oxoimidazolidine-1-carboxamido)-2-(2-chloro-5-fluoro-3,4-dihydroxyphenyl)acetamido)-7-fluoro-2-hydroxy-3,4-dihydro-2H-benzo[e][1,2]oxaborinine-8-carboxylic acid] | 2 to 4 (≈ 2.59 to 5.19 µM) | < 1 | 10 to 50 | < 1 | < 1 | < 1 | – | < 1 | – | 2 to 4 (≈ 2.59 to 5.19 µM) | 10 to 50 | < 1 | < 1 |
| Nc1cc(CN2CCC(N3CCN(C(=O)N[C@@H](C(=O)N[C@H]4Cc5ccc(F)c(C(=O)O)c5OB4O)c4cc(F)c(O)c(O)c4Cl)C3=O)CC2)ccn1 [Example 619, (R)-3-((R)-2-(3-(1-((2-aminopyridin-4-yl)methyl)piperidin-4-yl)-2-oxoimidazolidine-1-carboxamido)-2-(2-chloro-5-fluoro-3,4-dihydroxyphenyl)acetamido)-7-fluoro-2-hydroxy-3,4-dihydro-2H-benzo[e][1,2]oxaborinine-8-carboxylic acid] | < 1 | < 1 | 10 to 50 | < 1 | < 1 | < 1 | – | < 1 | < 1 | < 1 | < 10 | < 1 | – |
